The source of these data is patent US10265310B2, “6-membered cyclic amines or lactames substituted with urea and phenyl” (GRÜNENTHAL GMBH, priority 2016, dated 2019).

One test deals with FPR2 (Homo sapiens (Human), UniProt P25090). The test is described as follows: Agonistic activity (calcium FLIPR) in hFPR2-Aq-CHO cells. The test is classed as cell-based. The note with it: FLIPR Calcium 5 dye fluorescence, agonistic response. As for the experimental part: (§1) Cells (hFPR1-Gα15-CHO or hFPR2-Aq-CHO) are suspended in 10 mL of respective complete medium (F12(1×) HAM media; 10% HI-FBS; 0.1 mg/ml Hygromycin B and 0.2 mg/ml Zeocin [for hFPR1 only]; 0.4 mg/mL Geneticin and 0.25 mg/ml Zeocin [for hFPR2-Aq only]) and viability is checked using Trypan Blue exclusion. After washing, the cells are plated at 10,000 cells per well in 40 μL complete medium in a 384-well sterile clear bottom black plate and incubated in a 5% CO2 incubator at 37° C. for 18 hours. Plating media is removed from each well by decanting and gentle tapping before 30 μL of 0.5× Calcium 5 dye solution (0.5×FLIPR Calcium 5 dye (Molecular devices, R8186)); HBSS; 20 mM HEPES; 2.5 mM Probenecid; 0.025% Pluronic F-127; pH adjusted to 7.4) is added to each well and the plate is then incubated at 37° C. for 30 minutes. For the assay the plate is equilibrated at room temperature for 10 minutes before placing it in the FLIPR. Compounds are dissolved in DMSO and serially diluted over an 11 point half log (3.16 fold) dilution (2 mM to 20 nM). Compounds are then diluted 1:50 in assay buffer (HBSS; 20 mM HEPES; 2.5 mM Probenecid; 0.05% gelatin; 0.1% BSA; pH adjusted to 7.4) just before performing the assay. Compounds are finally added to the respective wells of the cell plate (final assay concentration 10 μM to 100 pM) using the FLIPR (e.g. FLIPR-Tetra, Molecular Devices) and fluorescence readings are captured for 5 minutes. The increase in fluorescence from the basal reading in the presence of the compounds is compared with that of the control wells (wells having no compound) to calculate the activity of the compounds. The EC50 values of the compounds can be determined using e.g. Graph pad Prism software.
Chain of FPR2 (P25090 whole entry): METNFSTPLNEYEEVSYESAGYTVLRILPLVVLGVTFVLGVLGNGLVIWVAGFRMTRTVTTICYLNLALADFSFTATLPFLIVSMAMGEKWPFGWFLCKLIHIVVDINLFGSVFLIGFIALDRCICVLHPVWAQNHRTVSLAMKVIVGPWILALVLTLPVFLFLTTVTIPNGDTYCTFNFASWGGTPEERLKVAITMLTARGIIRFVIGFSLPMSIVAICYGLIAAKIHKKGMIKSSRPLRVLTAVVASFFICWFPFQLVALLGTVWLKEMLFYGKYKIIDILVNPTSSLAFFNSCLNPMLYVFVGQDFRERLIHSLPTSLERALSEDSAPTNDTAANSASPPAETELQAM
(§2) Assay Method for Measuring Agonistic Activity of Compounds in hFPR1-Gα15-CHO and hFPR2-Aq-CHO Cell
(§3) Cryo-vial containing 6×10^6 cells (hFPR1-Gα15-CHO or hFPR2-Aq-CHO) was thawed in a 37° C. water bath. Cells were suspended in 10 ml of respective complete growth media (F12(1×) HAM media (Gibco; Cat#11765); 10% HI-FBS (Gibco; Cat#10082); 0.1 mg/ml Hygromycin B (Invitrogen; Cat#10687-010) [for hFPR1 only]; 0.2 mg/ml Zeocin (Invitrogen; Cat#R25001) [for hFPR1 only]; 0.4 mg/ml Geneticin (Gibco; Cat#10131) [for hFPR2-Aq only]; 0.25 mg/ml Zeocin (Invitrogen; Cat#R25001) [for hFPR2-Aq only]) in a 15 ml centrifuge tube. The cell viability was checked with the help of Trypan Blue dye. Upon washing the cells, those were plated in a 384-well sterile clear bottom black plate (Greiner Bioone Cat#781091) so that, each well contained 10,000 cells in 40 μl complete growth media. The plate was incubated in a 5% CO2 incubator at 37° C. for 18 hours.
(§4) Before assay on the next day, the cell plating media was removed from each well of the plate by decanting and gentle tapping. 30 μl, 0.11 of 0.5× Calcium 5 dye solution (0.5×FLIPR Calcium 5 dye (Molecular devices Cat# R8186); HBSS (Invitrogen; Cat#14025); 20 mM HEPES (Sigma; Cat#H0887); 2.5 mM Probenecid (Sigma; Cat#P8761); 0.025% Pluronic F-127 (Sigma; Cat#P2443); pH adjusted to 7.4) was added to each well. The plate was then incubated at 37° C. for 30 minutes. Following which the plate was equilibrated at room temperature for 10 minutes before placing it in a 384 well FLIPR for assay. Compounds were dissolved in DMSO and serially diluted following 11 point half log (3.16 fold) dilution with a starting concentration of 2 mM (Final assay concentration 10 μM). Aliquots of above mentioned each dilution was mixed with assay buffer (HBSS (Invitrogen; Cat#14025); 20 mM HEPES (Sigma; Cat#H0887); 2.5 mM Probenecid (Sigma; Cat#P8761); 0.05% gelatin (Sigma; Cat#G1890); 0.1% BSA (Sigma; Cat#A3059); pH adjusted to 7.4) just before performing the assay. Compounds were added to the respective wells of the assay ready cell plate with the help of the FLIPR (FLIPR Tetra) and fluorescence readings were captured for 5 minutes to measure any agonistic response of the compounds. […]

The next test has as its target FPR1 (Homo sapiens (Human), UniProt P21462). The test is described as follows: Agonistic activity (calcium FLIPR) in hFPR1-Gα15-CHO cells. The test is classed as cell-based. As to conditions: FLIPR Calcium 5 dye fluorescence, agonistic response. As for the experimental part: as §1, §2, §3, §4

Chain of FPR1 (P21462 whole entry): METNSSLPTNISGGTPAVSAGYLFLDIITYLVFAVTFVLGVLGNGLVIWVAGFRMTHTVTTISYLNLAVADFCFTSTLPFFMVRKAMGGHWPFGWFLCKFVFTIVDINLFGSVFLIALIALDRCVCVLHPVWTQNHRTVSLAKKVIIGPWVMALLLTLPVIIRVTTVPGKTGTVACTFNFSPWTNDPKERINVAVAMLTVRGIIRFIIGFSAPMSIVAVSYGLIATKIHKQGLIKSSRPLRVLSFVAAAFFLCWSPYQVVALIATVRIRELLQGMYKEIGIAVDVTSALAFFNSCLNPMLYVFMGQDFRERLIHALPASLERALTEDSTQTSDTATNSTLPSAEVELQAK

On to `CS(=O)(=O)c1ccc([C@@H]2CC(=O)NC[C@H]2NC(=O)Nc2ccc(Cl)cc2)cc1` (racemic) [Example 75, rac-trans-1-(4-chlorophenyl)-3-(4-(4-(methylsulfonyl)phenyl)-6-oxopiperidin-3-yl)urea], for which the EC50 on FPR2 and on FPR1 was 1 to 1000 nM each time.
For the compound `COc1ccc(C2C(NC(=O)Nc3ccc(Cl)cc3)CCCN2C)cc1` (single isomer, unassigned; dia1) [Example 89, dia1-1-(4-chlorophenyl)-3-(2-(4-methoxyphenyl)-1-methylpiperidin-3-yl)urea], the EC50 on FPR2 and on FPR1 was 1 to 1000 nM in each case.
Consider `COc1cc(F)c(C2C(NC(=O)Nc3ccc(Cl)cc3)CCCN2C)c(F)c1` (single isomer, unassigned; dia2) [Example 88, dia2-1-(4-chlorophenyl)-3-(2-(2,6-difluoro-4-methoxyphenyl)-1-methylpiperidin-3-yl)urea], for which the EC50 on FPR2 and on FPR1 was 1 to 1000 nM in each case.
For `COc1ccc(C2C(NC(=O)Nc3ccc(Cl)cc3)CCCN2C)cc1` (single isomer, unassigned; dia2) [Example 90, dia2-1-(4-chlorophenyl)-3-(2-(4-methoxyphenyl)-1-methylpiperidin-3-yl)urea], the EC50 on FPR2 and at FPR1 was 1 to 1000 nM each time.
As to `COc1cc(F)c(C2CCNCC2NC(=O)Nc2ccc(Cl)cc2)c(F)c1` (single isomer, unassigned; ent1) [Example 36, trans-ent1-1-(4-chlorophenyl)-3-(4-(2,6-difluoro-4-methoxyphenyl)piperidin-3-yl)urea], the EC50 (commonly the midpoint of the concentration-response curve) is less than 1 nM at FPR2 and 1 to 1000 nM on FPR1.
On the same counts, the results for `COc1cc(F)c(C2CCN(C(=O)C3CC3)CC2NC(=O)Nc2ccc(Cl)cc2)c(F)c1` (single isomer, unassigned; ent1) [Example 39, trans-ent1-1-(4-chlorophenyl)-3-(1-(cyclopropanecarbonyl)-4-(2,6-difluoro-4-methoxyphenyl)piperidin-3-yl)urea] are less than 1 nM and 1 to 1000 nM.
For `COc1ccc(C2CC(=O)NCC2NC(=O)Nc2ccc(Cl)cc2)c(F)c1` (single isomer, unassigned; ent1) [Example 42, trans-ent1-1-(4-chlorophenyl)-3-(4-(2-fluoro-4-methoxyphenyl)-6-oxopiperidin-3-yl)urea], in that order: less than 1 nM and 1 to 1000 nM.
On the same counts, the results for `COc1cc(F)c(C2CC(=O)NCC2NC(=O)Nc2ccncc2)c(F)c1` (single isomer, unassigned; ent1) [Example 47, ent1-1-(4-(2,6-difluoro-4-methoxyphenyl)-6-oxopiperidin-3-yl)-3-(pyridin-4-yl)urea] are 1 to 1000 nM and 1 to 1000 nM.
For the compound `COc1cc(F)c(C2CC(=O)NCC2NC(=O)Nc2ccc(Cl)cc2)c(F)c1` (single isomer, unassigned; ent1) [Example 49, trans-ent1-1-(4-chlorophenyl)-3-(4-(2,6-difluoro-4-methoxyphenyl)-6-oxopiperidin-3-yl)urea], the EC50 at FPR2 and on FPR1 was 1 to 1000 nM throughout.
On to `COCCN1CC(NC(=O)Nc2ccc(Cl)cc2)C(c2ccc(OC)cc2F)CC1=O` (single isomer, unassigned; ent1) [Example 59, trans-ent1-1-(4-Chlorophenyl)-3-[4-(2-fluoro-4-methoxy-phenyl)-1-(2-methoxy-ethyl)-6-oxo-piperidin-3-yl]-urea], for which the results for the EC50 at FPR2 and on FPR1 were less than 1 nM and 1 to 1000 nM, respectively.
On the same counts, the results for `COc1ccc(C2CC(=O)N(CC(F)F)CC2NC(=O)Nc2ccc(Cl)cc2)c(F)c1` (single isomer, unassigned; ent1) [Example 61, trans-ent1-1-(4-Chlorophenyl)-3-[1-(2,2-difluoro-ethyl)-4-(2-fluoro-4-methoxy-phenyl)-6-oxo-piperidin-3-yl]-urea] are less than 1 nM and less than 1 nM.
For the compound `COCCN1CC(NC(=O)Nc2ccc(Cl)cc2)C(c2ccc(F)cc2F)CC1=O` (single isomer, unassigned; ent1) [Example 63, trans-ent1-1-(4-Chlorophenyl)-3-[4-(2,4-difluoro-phenyl)-1-(2-methoxy-ethyl)-6-oxo-piperidin-3-yl]-urea], the EC50 at FPR2 and on FPR1 was 1 to 1000 nM throughout.
Take `O=C(Nc1ccc(Cl)cc1)NC1CN(CC(F)F)C(=O)CC1c1ccc(F)cc1F` (single isomer, unassigned; ent1) [Example 65, trans-ent1-1-(4-Chlorophenyl)-3-[1-(2,2-difluoro-ethyl)-4-(2,4-difluoro-phenyl)-6-oxo-piperidin-3-yl]-urea]: the EC50 at FPR2 and at FPR1 was 1 to 1000 nM each time.
For the compound `O=C1CC(c2ccc(F)cc2F)C(NC(=O)Nc2ccc(Cl)cc2)CN1` (single isomer, unassigned; ent1) [Example 67, trans-ent1-1-(4-Chlorophenyl)-3-[4-(2,4-difluoro-phenyl)-6-oxo-piperidin-3-yl]-urea], the 50% effective concentration (EC50) on FPR2 and at FPR1 was 1 to 1000 nM throughout.
As for `COc1ccc(C2CC(=O)NCC2NC(=O)Nc2ccc(Cl)cc2)cc1` (single isomer, unassigned; ent1) [Example 76, trans-ent1-1-(4-chlorophenyl)-3-(4-(4-methoxyphenyl)-6-oxopiperidin-3-yl)urea], the figures for the 50% effective concentration (EC50) on FPR2 and at FPR1 were less than 1 nM and 1 to 1000 nM, respectively.
On to `O=C(Nc1ccc(Cl)cc1)NC1CNCCC1c1ccccc1` (single isomer, unassigned; ent1) [Example 80, trans-ent1-1-(4-chlorophenyl)-3-(4-phenylpiperidin-3-yl)urea], for which the EC50 at FPR2 and at FPR1 was 1 to 1000 nM in each case.
For `O=C(Nc1ccc(Cl)cc1)NC1CN(C(=O)C2CC2)CCC1c1ccccc1` (single isomer, unassigned; ent1) [Example 83, trans-ent1-1-(4-chlorophenyl)-3-(1-(cyclopropanecarbonyl)-4-phenylpiperidin-3-yl)urea], the EC50 on FPR2 and at FPR1 was 1 to 1000 nM throughout.
Take `COc1ccc(C2CCN(C(=O)C3CC3)CC2NC(=O)Nc2ccc(Cl)cc2)c(F)c1` (single isomer, unassigned; ent1) [Example 86, trans-ent1-1-(4-chlorophenyl)-3-(1-(cyclopropanecarbonyl)-4-(2-fluoro-4-methoxyphenyl)piperidin-3-yl)urea]: the EC50 on FPR2 and on FPR1 was less than 1 nM throughout.
For `O=C1CC(c2ccc(Cl)cc2)C(NC(=O)Nc2ccc(Cl)cc2)CN1` (single isomer, unassigned; ent1) [Example 91, trans-ent1-1-(4-chlorophenyl)-3-(4-(4-chlorophenyl)-6-oxopiperidin-3-yl)urea], the EC50 on FPR2 and at FPR1 was 1 to 1000 nM throughout.
Regarding `COc1cc(F)c(C2CCNCC2NC(=O)Nc2ccc(Cl)cc2)c(F)c1` (single isomer, unassigned; ent2) [Example 37, trans-ent2-1-(4-chlorophenyl)-3-(4-(2,6-difluoro-4-methoxyphenyl)piperidin-3-yl)urea], the EC50 on FPR2 and on FPR1 was 1 to 1000 nM each time.
